Reference: the supplement of paper PMC13207355
Structures can show the parent of a compound that is named as a salt.

Legend:
Conditions in all cases: exposure time: 72 h
E13 [1] = patient-derived glioblastoma stem cells of classical subtype; experiment: surviving fraction (nuclei count normalised to DMSO); higher = more cells surviving (less toxic)
E21 [2] = patient-derived glioblastoma stem cells of mesenchymal subtype; experiment: as above
E28 [3] = patient-derived glioblastoma stem cells of classical subtype; experiment: as above
E31 [4] = patient-derived glioblastoma stem cells of proneural subtype; experiment: as above
E34 [5] = patient-derived glioblastoma stem cells of proneural subtype; experiment: as above
E57 [6] = patient-derived glioblastoma stem cells of mesenchymal subtype; experiment: as above
FT3469 [7] = normal neural stem cell line; experiment: as above
E13 [8] = experiment: phenotypic distance (Euclidean, principal components) from DMSO controls (arbitrary units); higher = stronger morphological change
E21 [9] = experiment: as above
E28 [10] = experiment: as above
E31 [11] = experiment: as above
E34 [12] = experiment: as above
E57 [13] = experiment: as above
FT3469 [14] = experiment: as above
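Throughout, for phenotypic distance (Euclidean, principal components) from DMSO controls: cell Painting imaging in 384-well plates, CellProfiler features reduced to at least 20 principal components, Euclidean distance versus same-plate DMSO vehicle wells (0.1% v/v), median over six images per well.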
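Throughout, for surviving fraction (nuclei count normalised to DMSO): nuclei counted by high-content imaging of Hoechst-stained cells in laminin-coated 384-well plates, relative to 0.1% DMSO vehicle wells, with staurosporine as cell-death control.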

N=c1ccn2c(n1)O[C@H]1[C@H](O)[C@@H](CO)O[C@H]12 [Ancitabine hydrochloride]
Conditions | phenotypic distance | surviving fraction
E13 [1], 4.1 nM | – | 0.857
E13 [1], 12.3 nM | – | 0.724
E13 [1], 37 nM | – | 0.884
E13 [1], 111.1 nM | – | 0.812
E13 [1], 333.3 nM | – | 0.716
E13 [1], 1000 nM | – | 0.67
E13 [1], 3000 nM | – | 0.49
E13 [8], 4.1 nM | 1.7 | –
E13 [8], 12.3 nM | 1.23 | –
E13 [8], 37 nM | 1.32 | –
E13 [8], 111.1 nM | 1.29 | –
E13 [8], 333.3 nM | 2.15 | –
E13 [8], 1000 nM | 3.33 | –
E13 [8], 3000 nM | 5.43 | –
E21 [2], 4.1 nM | – | 0.896
E21 [2], 12.3 nM | – | 0.889
E21 [2], 37 nM | – | 0.909
E21 [2], 111.1 nM | – | 0.832
E21 [2], 333.3 nM | – | 0.693
E21 [2], 1000 nM | – | 0.636
E21 [2], 3000 nM | – | 0.422
E21 [9], 4.1 nM | 1.35 | –
E21 [9], 12.3 nM | 1.44 | –
E21 [9], 37 nM | 1.87 | –
E21 [9], 111.1 nM | 2.14 | –
E21 [9], 333.3 nM | 3.95 | –
E21 [9], 1000 nM | 5.57 | –
E21 [9], 3000 nM | 6.36 | –
E28 [3], 4.1 nM | – | 0.837
E28 [3], 12.3 nM | – | 1.18
E28 [3], 37 nM | – | 0.826
E28 [3], 111.1 nM | – | 0.886
E28 [3], 333.3 nM | – | 0.687
E28 [3], 1000 nM | – | 0.653
E28 [3], 3000 nM | – | 0.482
E28 [10], 4.1 nM | 2.22 | –
E28 [10], 12.3 nM | 2 | –
E28 [10], 37 nM | 1.29 | –
E28 [10], 111.1 nM | 1.66 | –
E28 [10], 333.3 nM | 1.88 | –
E28 [10], 1000 nM | 2.56 | –
E28 [10], 3000 nM | 2.87 | –
E31 [4], 4.1 nM | – | 0.978
E31 [4], 12.3 nM | – | 0.749
E31 [4], 37 nM | – | 0.721
E31 [4], 111.1 nM | – | 0.594
E31 [4], 333.3 nM | – | 0.669
E31 [4], 1000 nM | – | 0.394
E31 [4], 3000 nM | – | 0.176
E31 [11], 4.1 nM | 1.4 | –
E31 [11], 12.3 nM | 1.46 | –
E31 [11], 37 nM | 1.63 | –
E31 [11], 111.1 nM | 2.22 | –
E31 [11], 333.3 nM | 2.92 | –
E31 [11], 1000 nM | 3.39 | –
E31 [11], 3000 nM | 3.87 | –
E34 [5], 4.1 nM | – | 0.976
E34 [5], 12.3 nM | – | 1.09
E34 [5], 37 nM | – | 0.963
E34 [5], 111.1 nM | – | 0.86
E34 [5], 333.3 nM | – | 0.71
E34 [5], 1000 nM | – | 0.689
E34 [5], 3000 nM | – | 0.593
E34 [12], 4.1 nM | 1.44 | –
E34 [12], 12.3 nM | 0.954 | –
E34 [12], 37 nM | 1.24 | –
E34 [12], 111.1 nM | 1.69 | –
E34 [12], 333.3 nM | 2.92 | –
E34 [12], 1000 nM | 3.78 | –
E34 [12], 3000 nM | 5.02 | –
E57 [6], 4.1 nM | – | 0.931
E57 [6], 12.3 nM | – | 0.805
E57 [6], 37 nM | – | 0.73
E57 [6], 111.1 nM | – | 0.655
E57 [6], 333.3 nM | – | 0.409
E57 [6], 1000 nM | – | 0.321
E57 [6], 3000 nM | – | 0.212
E57 [13], 4.1 nM | 3.74 | –
E57 [13], 12.3 nM | 1.61 | –
E57 [13], 37 nM | 2.27 | –
E57 [13], 111.1 nM | 3.75 | –
E57 [13], 333.3 nM | 6.65 | –
E57 [13], 1000 nM | 7.84 | –
E57 [13], 3000 nM | 8.89 | –
FT3469 [7], 4.1 nM | – | 0.699
FT3469 [7], 12.3 nM | – | 0.86
FT3469 [7], 37 nM | – | 0.964
FT3469 [7], 111.1 nM | – | 0.691
FT3469 [7], 333.3 nM | – | 0.668
FT3469 [7], 1000 nM | – | 0.679
FT3469 [7], 3000 nM | – | 0.682
FT3469 [14], 4.1 nM | 1.34 | –
FT3469 [14], 12.3 nM | 0.713 | –
FT3469 [14], 37 nM | 1.46 | –
FT3469 [14], 111.1 nM | 1.24 | –
FT3469 [14], 333.3 nM | 3.06 | –
FT3469 [14], 1000 nM | 2.47 | –
FT3469 [14], 3000 nM | 2.06 | –

OC[C@H]1O[C@@H](Oc2ccc(O)cc2)[C@H](O)[C@@H](O)[C@@H]1O [Arbutin]
Conditions | phenotypic distance | surviving fraction
E13 [1], 4.1 nM | – | 1.01
E13 [1], 12.3 nM | – | 1.04
E13 [1], 37 nM | – | 0.905
E13 [1], 111.1 nM | – | 0.917
E13 [1], 333.3 nM | – | 0.929
E13 [1], 1000 nM | – | 1.04
E13 [1], 3000 nM | – | 0.991
E13 [8], 4.1 nM | 0.566 | –
E13 [8], 12.3 nM | 0.859 | –
E13 [8], 37 nM | 0.511 | –
E13 [8], 111.1 nM | 0.508 | –
E13 [8], 333.3 nM | 0.829 | –
E13 [8], 1000 nM | 0.191 | –
E13 [8], 3000 nM | 0.813 | –
E21 [2], 4.1 nM | – | 1.03
E21 [2], 12.3 nM | – | 0.989
E21 [2], 37 nM | – | 1.07
E21 [2], 111.1 nM | – | 0.916
E21 [2], 333.3 nM | – | 1.05
E21 [2], 1000 nM | – | 0.971
E21 [2], 3000 nM | – | 0.967
E21 [9], 4.1 nM | 0.434 | –
E21 [9], 12.3 nM | 1.06 | –
E21 [9], 37 nM | 0.902 | –
E21 [9], 111.1 nM | 0.857 | –
E21 [9], 333.3 nM | 0.484 | –
E21 [9], 1000 nM | 0.568 | –
E21 [9], 3000 nM | 0.491 | –
E28 [3], 4.1 nM | – | 1.1
E28 [3], 12.3 nM | – | 1.03
E28 [3], 37 nM | – | 1.07
E28 [3], 111.1 nM | – | 1.15
E28 [3], 333.3 nM | – | 1.07
E28 [3], 1000 nM | – | 1.07
E28 [3], 3000 nM | – | 0.905
E28 [10], 4.1 nM | 0.41 | –
E28 [10], 12.3 nM | 0.873 | –
E28 [10], 37 nM | 0.666 | –
E28 [10], 111.1 nM | 1.1 | –
E28 [10], 333.3 nM | 0.543 | –
E28 [10], 1000 nM | 0.716 | –
E28 [10], 3000 nM | 0.531 | –
E31 [4], 4.1 nM | – | 0.937
E31 [4], 12.3 nM | – | 0.846
E31 [4], 37 nM | – | 0.945
E31 [4], 111.1 nM | – | 0.889
E31 [4], 333.3 nM | – | 1.05
E31 [4], 1000 nM | – | 1.13
E31 [4], 3000 nM | – | 0.884
E31 [11], 4.1 nM | 0.898 | –
E31 [11], 12.3 nM | 0.639 | –
E31 [11], 37 nM | 0.606 | –
E31 [11], 111.1 nM | 0.754 | –
E31 [11], 333.3 nM | 0.505 | –
E31 [11], 1000 nM | 0.754 | –
E31 [11], 3000 nM | 0.805 | –
E34 [5], 4.1 nM | – | 0.904
E34 [5], 12.3 nM | – | 1.15
E34 [5], 37 nM | – | 1.05
E34 [5], 111.1 nM | – | 1.02
E34 [5], 333.3 nM | – | 1.08
E34 [5], 1000 nM | – | 1.02
E34 [5], 3000 nM | – | 0.848
E34 [12], 4.1 nM | 0.689 | –
E34 [12], 12.3 nM | 0.94 | –
E34 [12], 37 nM | 0.434 | –
E34 [12], 111.1 nM | 0.454 | –
E34 [12], 333.3 nM | 0.675 | –
E34 [12], 1000 nM | 0.496 | –
E34 [12], 3000 nM | 1.12 | –
E57 [6], 4.1 nM | – | 0.949
E57 [6], 12.3 nM | – | 0.993
E57 [6], 37 nM | – | 1.11
E57 [6], 111.1 nM | – | 0.918
E57 [6], 333.3 nM | – | 1.07
E57 [6], 1000 nM | – | 1
E57 [6], 3000 nM | – | 1
E57 [13], 4.1 nM | 0.568 | –
E57 [13], 12.3 nM | 0.753 | –
E57 [13], 37 nM | 0.629 | –
E57 [13], 111.1 nM | 0.522 | –
E57 [13], 333.3 nM | 0.897 | –
E57 [13], 1000 nM | 0.4 | –
E57 [13], 3000 nM | 0.484 | –
FT3469 [7], 4.1 nM | – | 1.08
FT3469 [7], 12.3 nM | – | 0.99
FT3469 [7], 37 nM | – | 1.28
FT3469 [7], 111.1 nM | – | 0.987
FT3469 [7], 333.3 nM | – | 1.18
FT3469 [7], 1000 nM | – | 1.16
FT3469 [7], 3000 nM | – | 0.993
FT3469 [14], 4.1 nM | 0.247 | –
FT3469 [14], 12.3 nM | 0.982 | –
FT3469 [14], 37 nM | 0.795 | –
FT3469 [14], 111.1 nM | 1.03 | –
FT3469 [14], 333.3 nM | 0.636 | –
FT3469 [14], 1000 nM | 1.1 | –
FT3469 [14], 3000 nM | 0.991 | –
